# Measured values from patent publication US6525032B2, “Purine derivatives” (Pfizer Inc, priority 2000, dated 2003).
# Test system: neutrophils activated by fMLP
# Test: superoxide production from human neutrophils activated by fMLP (cytochrome C reduction)
# Assay type: cell-based
# Conditions: Neutrophil; fMLP-induced superoxide production, neutrophils from human peripheral blood, cytochalasin B priming, adenosine deaminase present; read-out: IC50 (concentration giving 50% inhibition compared to the control response to fMLP)
# Protocol: This is evaluated by determining the compound profile in an assay where superoxide production was measured from neutrophils activated by fMLP. Neutrophils were isolated from human peripheral blood using dextran sedimentation followed by centrifugation through Ficoll-Hypaque solution. Any contaminating erythrocytes in the granulocyte pellet were removed by lysis with ice-cold distilled water. Superoxide production from the neutrophils was induced by fMLP in the presence of a priming concentration of cytochalasin B. Adenosine deaminase was included in the assay to remove any endogenously produced adenosine that might suppress superoxide production. The effect of the compound on the fMLP-induced response was monitored colorometrically from the reduction of cytochrome C within the assay buffer. The potency of the compounds was assessed by the concentration giving 50% inhibition (IC50) compared to the control response to fMLP.
row,Compound,IC50 [nM]
1,"CCNC(=O)[C@H]1O[C@@H](n2cnc3c(NCC(c4ccccc4)c4ccccc4)nc(C(=O)NCCCN4CCCC4)nc32)[C@H](O)[C@@H]1O [Example 7, 6-[(2,2-diphenylethyl)amino]-9-{(2R,3R,4S,5S)-5-[(ethylamino)carbonyl]-3,4-dihydroxytetrahydro-2-furanyl}-N-[3-(1-pyrrolidinyl)propyl]-9H-purine-2-carboxamide]",< 40
2,"CCNC(=O)[C@H]1O[C@@H](n2cnc3c(NC(CC)CC)nc(C(=O)NCCN4CCCCC4)nc32)[C@H](O)[C@@H]1O [Example 10, 9-{(2R,3R,4S, 5S)-5-[(ethylamino)carbonyl]-3,4-dihydroxytetrahydro-2-furanyl}-6-[(1-ethylpropyl)amino]-N-[2-(1-piperidinyl)ethyl]-9H-purine-2-carboxamide]",< 40
3,"CCNC(=O)[C@H]1O[C@@H](n2cnc3c(NCC(c4ccccc4)c4ccccc4)nc(C(=O)NCCN4CCC(C(C)C)CC4)nc32)[C@H](O)[C@@H]1O [Example 12, 6-[(2,2-diphenylethyl)amino]-9-{(2R,3R,4S,5S)-5-[(ethylamino)carbonyl]-3,4-dihydroxytetrahydro-2-furanyl}-N-[2-(4-isopropyl-1-piperidinyl)ethyl]-9H-purine-2-carboxamide]",< 40
4,"CCNC(=O)[C@H]1O[C@@H](n2cnc3c(NCC(c4ccccc4)c4ccccc4)nc(C(=O)NCCCNC(C)C)nc32)[C@H](O)[C@@H]1O [Example 16, 6-[(2,2-diphenylethyl)amino]-9-{(2R,3R,4S,5S)-5-[(ethylamino)carbonyl]-3,4-dihydroxytetrahydro-2-furanyl}-N-[3-(isopropylamino)propyl]-9H-purine-2-carboxamide]",< 40
5,"CCNC(=O)[C@H]1O[C@@H](n2cnc3c(NCC4c5ccccc5-c5ccccc54)nc(C(=O)NCCN4CCCCC4)nc32)[C@H](O)[C@@H]1O [Example 20, 9-{(2R,3R,4S,5S)-5-[(ethylamino)carbonyl]-3,4-dihydroxytetrahydro-2-furanyl}-6-[(9H-fluoren-9-ylmethyl)amino]-N-[2-(1-piperidinyl)ethyl]-9H-purine-2-carboxamide]",< 40
6,"CCNC(=O)[C@H]1O[C@@H](n2cnc3c(NCC(c4ccccc4)c4ccccc4)nc(C(=O)NCCCN(CC)CC)nc32)[C@H](O)[C@@H]1O [Example 21, N-[3-(diethylamino)propyl]-6-[(2,2-diphenylethyl)amino]-9-{(2R,3R,4S,5S)-5-[(ethylamino)carbonyl]-3,4-dihydroxytetrahydro-2-furanyl}-9H-purine-2-carboxamide]",< 40
7,"CCNC(=O)[C@H]1O[C@@H](n2cnc3c(NCC(c4ccccc4)c4ccccc4)nc(C(=O)NCCCN(C)C)nc32)[C@H](O)[C@@H]1O [Example 27, N-[3-(dimethylamino)propyl]-6-[(2,2-diphenylethyl)amino]-9-{(2R,3R,4S,5S)-5-[(ethylamino)carbonyl]-3,4-dihydroxytetrahydro-2-furanyl}-9H-purine-2-carboxamide]",< 40
8,"CCNC(=O)[C@H]1O[C@@H](n2cnc3c(NCC(c4ccccc4)c4ccccc4)nc(C(=O)NCCN4CCC(C)CC4)nc32)[C@H](O)[C@@H]1O [Example 31, 6-[(2,2-diphenylethyl)amino]-9-{(2R,3R,4S,5S)-5-[(ethylamino)carbonyl]-3,4-dihydroxytetrahydro-2-furanyl}-N-[2-(4-methyl-1-piperidinyl)ethyl]-9H-purine-2-carboxamide]",< 40
